Laboratory results: ChEMBL document CHEMBL4610078, “Bioactive Azepine-Indole Alkaloids from Psychotria nemorosa” (J Nat Prod, 2020)
pIC50: −log10 of the molar value. Calls of active or inactive are those of the source. No cut-off for these calls is given here.

Assays:
[1] = target: Acetylcholinesterase (Electrophorus electricus) (UniProt O42275); assay: Inhibition of electric eel AchE using acetylthiocholine as substrate at 10 uM measured for 6 mins by Ellman's method
[2] = target: T1, Amine oxidase [flavin-containing] A (Homo sapiens, UniProt P21397)
T1 sequence (P21397 whole entry): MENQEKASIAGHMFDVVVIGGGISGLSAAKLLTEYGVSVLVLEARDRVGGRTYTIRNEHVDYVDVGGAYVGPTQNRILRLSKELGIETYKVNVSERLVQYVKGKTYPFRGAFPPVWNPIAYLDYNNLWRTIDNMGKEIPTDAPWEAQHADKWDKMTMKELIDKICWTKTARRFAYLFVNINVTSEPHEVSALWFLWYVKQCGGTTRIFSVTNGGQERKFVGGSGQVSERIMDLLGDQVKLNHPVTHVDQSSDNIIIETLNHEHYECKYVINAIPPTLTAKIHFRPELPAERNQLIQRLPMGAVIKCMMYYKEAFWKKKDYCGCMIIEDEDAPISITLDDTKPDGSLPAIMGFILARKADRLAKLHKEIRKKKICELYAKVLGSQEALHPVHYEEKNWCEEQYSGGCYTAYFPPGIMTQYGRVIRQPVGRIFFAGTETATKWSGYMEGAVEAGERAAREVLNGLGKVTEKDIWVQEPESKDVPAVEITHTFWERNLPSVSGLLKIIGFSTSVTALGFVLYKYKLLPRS
Description: Inhibition of recombinant human MAO-A incubated for 30 mins by fluorescence-based method

[3] = target: Cholinesterase (Equus caballus) (UniProt P81908); assay: Inhibition of equine serum BChE using (S)-butyrylthiocholine iodide as substrate at 10 uM measured for 6 mins by Ellman's method
Chain of Cholinesterase (Equus caballus) (P81908 whole entry): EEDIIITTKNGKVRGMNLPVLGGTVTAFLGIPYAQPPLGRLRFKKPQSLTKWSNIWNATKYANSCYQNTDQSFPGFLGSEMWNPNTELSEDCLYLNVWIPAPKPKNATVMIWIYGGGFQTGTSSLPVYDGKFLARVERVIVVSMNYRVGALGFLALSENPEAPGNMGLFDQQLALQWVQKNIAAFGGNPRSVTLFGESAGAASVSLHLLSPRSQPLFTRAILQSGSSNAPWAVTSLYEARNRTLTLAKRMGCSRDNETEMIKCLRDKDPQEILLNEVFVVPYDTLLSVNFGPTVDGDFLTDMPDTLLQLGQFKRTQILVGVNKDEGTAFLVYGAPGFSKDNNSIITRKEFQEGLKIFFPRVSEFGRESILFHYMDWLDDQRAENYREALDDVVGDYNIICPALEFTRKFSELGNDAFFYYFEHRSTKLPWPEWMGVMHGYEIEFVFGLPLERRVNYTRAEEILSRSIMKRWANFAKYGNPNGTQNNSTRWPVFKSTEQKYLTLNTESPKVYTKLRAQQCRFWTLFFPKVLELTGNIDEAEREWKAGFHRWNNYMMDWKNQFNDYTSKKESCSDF

[4] = target: T2, Amine oxidase [flavin-containing] B (Homo sapiens, UniProt P27338); conditions: 0.5 h, read-out: INH
T2 sequence (P27338 whole entry): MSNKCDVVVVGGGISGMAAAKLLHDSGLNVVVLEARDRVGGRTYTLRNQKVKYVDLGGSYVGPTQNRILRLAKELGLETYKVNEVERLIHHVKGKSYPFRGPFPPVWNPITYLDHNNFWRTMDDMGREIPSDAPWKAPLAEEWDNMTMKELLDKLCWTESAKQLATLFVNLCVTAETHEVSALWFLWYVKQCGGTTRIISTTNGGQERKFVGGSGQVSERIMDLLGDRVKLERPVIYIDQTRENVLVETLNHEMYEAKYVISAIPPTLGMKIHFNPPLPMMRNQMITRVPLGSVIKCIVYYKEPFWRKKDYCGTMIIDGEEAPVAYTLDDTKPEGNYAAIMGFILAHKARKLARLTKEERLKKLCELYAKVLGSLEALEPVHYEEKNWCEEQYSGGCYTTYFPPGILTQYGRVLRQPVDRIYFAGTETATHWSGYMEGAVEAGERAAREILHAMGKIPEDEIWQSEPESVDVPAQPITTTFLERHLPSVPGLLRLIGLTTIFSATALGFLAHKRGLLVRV
Description: Inhibition of recombinant human MAO-B at 10 uM incubated for 30 mins by fluorescence-based method

Chain of Acetylcholinesterase (Electrophorus electricus) (O42275 24-633 limits assumed): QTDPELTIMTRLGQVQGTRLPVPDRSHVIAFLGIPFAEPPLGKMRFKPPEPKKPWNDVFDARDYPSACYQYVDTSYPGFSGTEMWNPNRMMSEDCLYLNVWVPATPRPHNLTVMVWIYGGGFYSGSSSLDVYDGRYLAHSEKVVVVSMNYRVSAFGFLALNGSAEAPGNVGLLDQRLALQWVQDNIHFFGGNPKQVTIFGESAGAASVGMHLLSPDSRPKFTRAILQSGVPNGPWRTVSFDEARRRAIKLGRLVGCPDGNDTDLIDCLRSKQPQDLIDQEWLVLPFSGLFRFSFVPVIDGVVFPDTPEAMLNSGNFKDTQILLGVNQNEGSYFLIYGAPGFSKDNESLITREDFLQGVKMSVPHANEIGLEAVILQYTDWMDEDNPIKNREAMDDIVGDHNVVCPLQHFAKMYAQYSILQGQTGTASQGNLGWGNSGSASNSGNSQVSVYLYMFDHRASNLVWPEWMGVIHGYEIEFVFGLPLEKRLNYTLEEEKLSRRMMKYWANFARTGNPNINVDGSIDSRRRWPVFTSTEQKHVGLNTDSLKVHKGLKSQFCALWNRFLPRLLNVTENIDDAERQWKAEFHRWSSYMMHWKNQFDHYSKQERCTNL

SMILES | inhibition [1] | pIC50 [2] | inhibition [3] | inhibition at 10 µM [4]
C=C[C@H]1[C@H](O[C@@H]2O[C@H](COC(=O)/C=C/c3ccc(OC)c(OC)c3)[C@@H](O)[C@H](O)[C@H]2O)OC=C(C(=O)OC)[C@H]1C[C@H]1c2c(O)ccc3[nH]cc(c23)CCN1C | inactive | < 5.00 | inactive | –
C[N+]1=Cc2c(O)ccc3[nH]cc(c23)CC1 | inactive | 6.05 | 21% | 31%
C=C[C@H]1[C@H](O[C@@H]2O[C@H](CO)[C@@H](O)[C@H](O)[C@H]2O)OC=C(C(=O)OC)[C@H]1C[C@@H]1c2c(O)ccc3[nH]cc(c23)CCN1C | inactive | < 5.00 | inactive | –
C=C[C@H]1[C@H](O[C@@H]2O[C@H](CO)[C@@H](O)[C@H](O)[C@H]2O)OC=C(C(=O)OC)[C@H]1C[C@H]1c2c(O)ccc3[nH]cc(c23)CCN1C | inactive | < 5.00 | inactive | –
C#CCN(C)Cc1ccccc1 [PARGYLINE] | – | – | – | 0.14%
C[N+]1([O-])CCc2c[nH]c3ccc(O)c(c23)C1 (configuration not stated) | inactive | 5.85 | 41% | 27%
CN1CCc2c[nH]c3ccc(O)c(c23)C1 | inactive | 5.85 | 18% | 22%
